Results from patent US11878965B2, “Inhibitors of peptidylarginine deiminases” (Gilead Sciences, Inc., priority 2020, dated 2024).
pIC50: −log10 of the molar value.

Biological target: human PAD4 (Homo sapiens (Human), UniProt Q9UM07)
Test: In Vitro PAD4 BAEE Biochemical Assay
Details: recombinant PAD4 5 nM, 2 mM calcium chloride, 3 mM BAEE substrate; geometric mean of multiple experiments
Procedure, shortened: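 Deimination of BAEE substrate (3 mM) measured as ammonia via o-phthalaldehyde–DTT isoindole fluorescence, 405/535 nm. Tag-free bacterially expressed human PAD4 at 5 nM with 2 mM calcium chloride, pH 7.6 MOPS buffer, 30 min compound preincubation then 2 h reaction, both at 25 °C.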

human PAD4, sequence (Q9UM07 2-663): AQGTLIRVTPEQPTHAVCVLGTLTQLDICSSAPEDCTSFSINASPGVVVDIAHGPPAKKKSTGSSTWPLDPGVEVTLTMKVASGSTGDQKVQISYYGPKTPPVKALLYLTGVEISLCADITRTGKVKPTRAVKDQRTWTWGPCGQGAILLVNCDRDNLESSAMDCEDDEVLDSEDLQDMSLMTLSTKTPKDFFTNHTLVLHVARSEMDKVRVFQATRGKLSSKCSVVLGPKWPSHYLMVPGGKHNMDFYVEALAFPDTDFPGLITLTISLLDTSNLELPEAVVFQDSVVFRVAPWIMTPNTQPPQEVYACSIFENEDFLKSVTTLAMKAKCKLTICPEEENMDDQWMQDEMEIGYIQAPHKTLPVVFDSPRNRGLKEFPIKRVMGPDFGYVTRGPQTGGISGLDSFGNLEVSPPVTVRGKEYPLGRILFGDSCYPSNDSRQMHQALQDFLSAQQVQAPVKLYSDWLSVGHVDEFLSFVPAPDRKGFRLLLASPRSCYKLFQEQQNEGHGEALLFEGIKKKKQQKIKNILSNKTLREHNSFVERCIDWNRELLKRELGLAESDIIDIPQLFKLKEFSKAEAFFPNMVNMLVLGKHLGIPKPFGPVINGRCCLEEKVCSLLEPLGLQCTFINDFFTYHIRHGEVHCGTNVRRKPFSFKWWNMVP

| Compound | pIC50 |
| --- | --- |
| COc1cc(C(=O)N2C[C@H](N)[C@@H]3CC[C@H]2C3)cc2nc(-c3cc4ccc([C@@H](C)NC(=O)c5ccc(C#CC(C)(C)S(C)(=O)=O)nc5)nc4n3CC3CC3)n(C)c12 [Example 308, N-((R)-1-(2-(5-((1S,4R,5R)-4-amino-2-azabicyclo[3.2.1]octane-2-carbonyl)-7-methoxy-1-methyl-1H-benzo[d]imidazol-2-yl)-1-(cyclopropylmethyl)-1H-pyrrolo[2,3-b]pyridin-6-yl)ethyl)-6-(3-methyl-3-(methylsulfonyl)but-1-yn-1-yl)nicotinamide] | 7.18 |
| COc1cc(C(=O)N2C[C@H](N)[C@@H]3CC[C@H]2C3)cc2nc(-c3cc4ccc([C@@H](C)NC(=O)c5ccc(C(F)F)nc5)nc4n3CC3CC3)n(C3CC3)c12 [Example 309, N-((R)-1-(2-(5-((1S,4R,5R)-4-amino-2-azabicyclo[3.2.1]octane-2-carbonyl)-1-cyclopropyl-7-methoxy-1H-benzo[d]imidazol-2-yl)-1-(cyclopropylmethyl)-1H-pyrrolo[2,3-b]pyridin-6-yl)ethyl)-6-(difluoromethyl)nicotinamide] | 6.95 |
| C[C@@H](NC(=O)c1ccc(C(F)F)nc1)c1ccc2cc(-c3nc4cc(C(=O)N5C[C@H](N)[C@@H]6CC[C@H]5C6)cc(F)c4n3C3CC3)n(CC3CC3)c2n1 [Example 310, N-((R)-1-(2-(5-((1S,4R,5R)-4-amino-2-azabicyclo[3.2.1]octane-2-carbonyl)-1-cyclopropyl-7-fluoro-1H-benzo[d]imidazol-2-yl)-1-(cyclopropylmethyl)-1H-pyrrolo[2,3-b]pyridin-6-yl)ethyl)-6-(difluoromethyl)nicotinamide] | 7.05 |
| COc1cc(C(=O)N2C[C@H](N)[C@@H]3CC[C@H]2C3)cc2nc(-c3cc4ccc([C@@H](C)NC(=O)[C@@H]5CC5(F)F)nc4n3CC3CC3)n(C)c12 [Example 311, (S)-N-((R)-1-(2-(5-((1S,4R,5R)-4-amino-2-azabicyclo[3.2.1]octane-2-carbonyl)-7-methoxy-1-methyl-1H-benzo[d]imidazol-2-yl)-1-(cyclopropylmethyl)-1H-pyrrolo[2,3-b]pyridin-6-yl)ethyl)-2,2-difluorocyclopropane-1-carboxamide] | 7.17 |
| COc1cc(C(=O)N2C[C@H](N)[C@@H]3CC[C@H]2C3)cc2nc(-c3cc4ccc([C@@H](C)NC(=O)[C@H]5CC5(F)F)nc4n3CC3CC3)n(C)c12 [Example 312, (R)-N-((R)-1-(2-(5-((1S,4R,5R)-4-amino-2-azabicyclo[3.2.1]octane-2-carbonyl)-7-methoxy-1-methyl-1H-benzo[d]imidazol-2-yl)-1-(cyclopropylmethyl)-1H-pyrrolo[2,3-b]pyridin-6-yl)ethyl)-2,2-difluorocyclopropane-1-carboxamide] | 7.25 |
| COc1cc(C(=O)N2C[C@H](N)[C@@H]3CC[C@H]2C3)cc2nc(-c3cc4ccc([C@@H](C)NC(=O)c5ccc(C(F)(F)F)nc5)nc4n3CC3CC3)n(C)c12 [Example 313, N-((R)-1-(2-(5-((1S,4R,5R)-4-amino-2-azabicyclo[3.2.1]octane-2-carbonyl)-7-methoxy-1-methyl-1H-benzo[d]imidazol-2-yl)-1-(cyclopropylmethyl)-1H-pyrrolo[2,3-b]pyridin-6-yl)ethyl)-6-(trifluoromethyl)nicotinamide] | 6.95 |
| COc1cc(C(=O)N2C[C@H](N)[C@@H]3CC[C@H]2C3)cc2nc(-c3cc4ccc([C@@H](C)NC(=O)c5cnc(C(F)(F)F)nc5)nc4n3CC3CC3)n(C)c12 [Example 314, N-((R)-1-(2-(5-((1S,4R,5R)-4-amino-2-azabicyclo[3.2.1]octane-2-carbonyl)-7-methoxy-1-methyl-1H-benzo[d]imidazol-2-yl)-1-(cyclopropylmethyl)-1H-pyrrolo[2,3-b]pyridin-6-yl)ethyl)-2-(trifluoromethyl)pyrimidine-5-carboxamide] | 6.85 |
| COc1cc(C(=O)N2C[C@H](N)[C@@H]3CC[C@H]2C3)cc2nc(-c3cc4ccc([C@@H](C)NC(=O)c5cnc(C(F)F)nc5)nc4n3CC3CC3)n(C)c12 [Example 315, N-((R)-1-(2-(5-((1S,4R,5R)-4-amino-2-azabicyclo[3.2.1]octane-2-carbonyl)-7-methoxy-1-methyl-1H-benzo[d]imidazol-2-yl)-1-(cyclopropylmethyl)-1H-pyrrolo[2,3-b]pyridin-6-yl)ethyl)-2-(difluoromethyl)pyrimidine-5-carboxamide] | 7.09 |
| COc1cc(C(=O)N2C[C@H](N)[C@@H]3CC[C@H]2C3)cc2nc(-c3cc4ccc([C@@H](C)NC(=O)c5ccnc(C(F)(F)F)n5)nc4n3CC3CC3)n(C)c12 [Example 316, N-((R)-1-(2-(5-((1S,4R,5R)-4-amino-2-azabicyclo[3.2.1]octane-2-carbonyl)-7-methoxy-1-methyl-1H-benzo[d]imidazol-2-yl)-1-(cyclopropylmethyl)-1H-pyrrolo[2,3-b]pyridin-6-yl)ethyl)-2-(trifluoromethyl)pyrimidine-4-carboxamide] | 6.24 |
| COc1cc(C(=O)N2C[C@H](N)[C@@H]3CC[C@H]2C3)cc2nc(-c3cc4ccc([C@@H](C)NC(=O)C56CC(F)(C5)C6)nc4n3CC3CC3)n(C3CC3)c12 [Example 317, N-((R)-1-(2-(5-((1S,4R,5R)-4-amino-2-azabicyclo[3.2.1]octane-2-carbonyl)-1-cyclopropyl-7-methoxy-1H-benzo[d]imidazol-2-yl)-1-(cyclopropylmethyl)-1H-pyrrolo[2,3-b]pyridin-6-yl)ethyl)-3-fluorobicyclo[1.1.1]pentane-1-carboxamide] | 6.91 |
| COc1cc(C(=O)N2C[C@H](N)[C@@H]3CC[C@H]2C3)cc2nc(-c3cc4ccc([C@@H](C)NC(=O)c5cnc(C(F)(F)F)cn5)nc4n3CC3CC3)n(C)c12 [Example 318, N-((R)-1-(2-(5-((1S,4R,5R)-4-amino-2-azabicyclo[3.2.1]octane-2-carbonyl)-7-methoxy-1-methyl-1H-benzo[d]imidazol-2-yl)-1-(cyclopropylmethyl)-1H-pyrrolo[2,3-b]pyridin-6-yl)ethyl)-5-(trifluoromethyl)pyrazine-2-carboxamide] | 6.60 |
| COc1cc(C(=O)N2C[C@H](N)[C@@H]3CC[C@H]2C3)cc2nc(-c3cc4ccc([C@@H](C)NC(=O)c5cnn(C6CC6)c5)nc4n3CC3CC3)n(C)c12 [Example 319, N-((R)-1-(2-(5-((1S,4R,5R)-4-amino-2-azabicyclo[3.2.1]octane-2-carbonyl)-7-methoxy-1-methyl-1H-benzo[d]imidazol-2-yl)-1-(cyclopropylmethyl)-1H-pyrrolo[2,3-b]pyridin-6-yl)ethyl)-1-cyclopropyl-1H-pyrazole-4-carboxamide] | 7.24 |
| COc1cc(C(=O)N2C[C@H](N)[C@@H]3CC[C@H]2C3)cc2nc(-c3cc4ccc([C@@H](C)NC(=O)c5cnn(C(F)(F)F)c5)nc4n3CC3CC3)n(C)c12 [Example 320, N-((R)-1-(2-(5-((1S,4R,5R)-4-amino-2-azabicyclo[3.2.1]octane-2-carbonyl)-7-methoxy-1-methyl-1H-benzo[d]imidazol-2-yl)-1-(cyclopropylmethyl)-1H-pyrrolo[2,3-b]pyridin-6-yl)ethyl)-1-(trifluoromethyl)-1H-pyrazole-4-carboxamide] | 7.08 |
| COc1cc(C(=O)N2C[C@H](N)[C@@H]3CC[C@H]2C3)cc2nc(-c3cc4ccc([C@@H](C)NC(=O)C(C)(C)OC)nc4n3CC3CC3)n(C)c12 [Example 321, N-((R)-1-(2-(5-((1S,4R,5R)-4-amino-2-azabicyclo[3.2.1]octane-2-carbonyl)-7-methoxy-1-methyl-1H-benzo[d]imidazol-2-yl)-1-(cyclopropylmethyl)-1H-pyrrolo[2,3-b]pyridin-6-yl)ethyl)-2-methoxy-2-methylpropanamide] | 7.14 |
| COc1cc(C(=O)N2C[C@H](N)[C@@H]3CC[C@H]2C3)cc2nc(-c3cc4ccc([C@@H](C)NC(=O)C5(OC)CC5)nc4n3CC3CC3)n(C)c12 [Example 322, N-((R)-1-(2-(5-((1S,4R,5R)-4-amino-2-azabicyclo[3.2.1]octane-2-carbonyl)-7-methoxy-1-methyl-1H-benzo[d]imidazol-2-yl)-1-(cyclopropylmethyl)-1H-pyrrolo[2,3-b]pyridin-6-yl)ethyl)-1-methoxycyclopropane-1-carboxamide] | 7.21 |
| COc1cc(C(=O)N2C[C@H](N)[C@@H]3CC[C@H]2C3)cc2nc(-c3cc4ccc([C@@H](C)NC(=O)C(C)(C)C(F)F)nc4n3CC3CC3)n(C)c12 [Example 323, N-((R)-1-(2-(5-((1S,4R,5R)-4-amino-2-azabicyclo[3.2.1]octane-2-carbonyl)-7-methoxy-1-methyl-1H-benzo[d]imidazol-2-yl)-1-(cyclopropylmethyl)-1H-pyrrolo[2,3-b]pyridin-6-yl)ethyl)-3,3-difluoro-2,2-dimethylpropanamide] | 7.07 |
| COc1cc(C(=O)N2C[C@H](N)[C@@H]3CC[C@H]2C3)cc2nc(-c3cc4ccc([C@@H](C)NC(=O)C5(C(F)F)CC5)nc4n3CC3CC3)n(C)c12 [Example 324, N-((R)-1-(2-(5-((1S,4R,5R)-4-amino-2-azabicyclo[3.2.1]octane-2-carbonyl)-7-methoxy-1-methyl-1H-benzo[d]imidazol-2-yl)-1-(cyclopropylmethyl)-1H-pyrrolo[2,3-b]pyridin-6-yl)ethyl)-1-(difluoromethyl)cyclopropane-1-carboxamide] | 7.09 |
| COc1cc(C(=O)N2C[C@H](N)[C@@H]3CC[C@H]2C3)cc2nc(-c3cc4ccc([C@@H](C)NC(=O)C(C)(C)F)nc4n3CC3CC3)n(C)c12 [Example 325, N-((R)-1-(2-(5-((1S,4R,5R)-4-amino-2-azabicyclo[3.2.1]octane-2-carbonyl)-7-methoxy-1-methyl-1H-benzo[d]imidazol-2-yl)-1-(cyclopropylmethyl)-1H-pyrrolo[2,3-b]pyridin-6-yl)ethyl)-2-fluoro-2-methylpropanamide] | 7.04 |
